The source of these data is patent US9682050B2, “Methods of treating lactose intolerance” (Nogra Pharma Limited, priority 2012, dated 2017).

The subject of series [1] is human lactase gene. As to the kind of experiment: Lactase mRNA expression (qPCR) in Caco-2 cells stimulated with PPAR agonists. It counts as cell-based. As to conditions: for LCT gene expression in Caco2 cells: summary statement. As to the method: Caco-2 colonic adenocarcinoma cell lines were used. Caco-2 cells grew in Dulbecco's modified Eagle's medium (DMEM, Invitrogen, Cergy-Pontoise, France) supplemented with 20% foetal calf serum (FCS, Dutscher, Brumath, France), 1% penicillin-streptomycin (5 ml/l) (Invitrogen) and 1% non-essential amino acids (5 ml/l) (Invitrogen). All cell lines were cultured as confluent monolayers at 37° C. in a controlled, 5% CO2 atmosphere. Each week, the confluent monolayer were trypsinized (Invitrogen) and then replated after a 1:10 dilution. For the stimulation experiments, cells were placed in 6-well plates at a density of 1×10^6 cells per well. Serum deprivation was used 16 hours prior to stimulation in order to synchronize the cells.
The cells were treated with Compound 34 (1 mM and 30 mM), 5-ASA (30 mM), or pioglitazone (1 μM). When necessary, the vehicle DMSO (Sigma) is used as control (Ctrl). After 24 hrs of stimulation, the wells were rinsed three times with sterile PBS at 4° C. The cells were then lysed with lysis buffer (RA1, Macherey-Nagel) containing 1% β-mercaptoethanol. The plates were frozen at −80° C. for subsequent RNA extraction. A time course experiment consisting of stimulation of Caco-2 cells by compound 34, 1 mM during 6 hrs and 12 hrs was also done in order to compare gene expression according treatment duration.
Total RNA were extracted with a Nucleospin RNA kit (Macherey-Nagel, Hoerdt, France). After RNAse inactivation, the total RNA was cleaned of trace genomic DNA via a DNAse treatment and eluted in RNAse-free, DEPC-free water. The purity of the RNA will be evaluated by UV spectroscopy on a Nanodrop system from 220 to 350 nm. Before microarray experiment, RNAs were also profiled on an Agilent 2100 bioanalyzer. One μg of total RNA were used in the microarray analysis (minimum concentration: 50 ng/μl).
(§1) Transcripts of genes were estimated by quantitative PCR (qPCR) in order to confirm microarrays results. 1 μg of total RNA was reverse-transcripted into cDNA using the High Capacity cDNA Achive kit (Applied biosystems). qPCR was performed using an ABI PRISM 7000 sequence detection system (Applied Biosystem). Primer pairs for each transcript were chosen with qPrimer depot software. Quantification of qPCR signals was performed using ΔCt relative quantification method using GAPDH as a reference gene. The values were represented in terms of relative quantity of mRNA level variation or fold increase compared to control conditions.
Each experiment has been done at least twice. The lactase gene expression was first confirmed to be stimulated by compound 34 at two different concentrations (1 mM, fold increase 4.78, p=0.0002; 30 mM, fold increase 7.9, p=0.0006) (FIG. 4A).
Background: Quantitative PCR measures a nucleic acid by following its amplification.

Series [2] relates to PPAR semi deficient epithelial cells. Put plainly: LCT gene expression in PPAR knock down (ShPPAR) Caco-2 cells. It counts as cell-based, human. As to the method: as §1
PPARγ knock down IECs were obtained using the pSUPER.retro system (OligoEngine). Forward and reverse target sequences corresponding to nucleotides 105-123 of the human PPARg mRNA (5-′-GCCCTTCACTACTGTTGAC-3′ (SEQ ID NO: 1)) were cloned into the BglII/XhoI restriction sites of the pSUPERretro vector (pRS) giving the ShPPAR construct. A negative control pRS plasmid containing the sequence 5′-ACGCTGAGTACTTCGAAAT-3′ (SEQ ID NO: 2) targeted against the luciferase gene was also generated (ShLuc construct). Both constructions were transfected in Caco-2 cells using Nucleofector technology from Amaxa Biosystems, according to the manufacturer's protocol. […] The silencing of PPARg expression was checked by quantitative RT-PCR and western-blot analysis. […]

`CCc1ccc(CCOc2ccc(CC3SC(=O)NC3=O)cc2)nc1` (centres unmarked) [pioglitazone]: the “lactase mRNA expression, fold increase” value in series [1] (1 μM, 24 hrs, Caco-2 cells) came to 11.76 fold. In series [1], the “LCT gene expression in Caco2 cells” value is recorded as “enhance LCT gene expression”.

For `Nc1ccc(O)c(C(=O)O)c1` [5ASA, 5-amino salicyclic acid], the “lactase gene expression, fold increase” value in series [1] (30 mM, 24 hrs, Caco-2 cells) was 12.69 fold. In addition, the “LCT gene expression in Caco2 cells” value in series [1] is “enhance LCT gene expression”. Moreover, in series [2], the “LCT gene expression in PPAR semi deficient epithelial cells” value is given as “kept their upregulatory effects”.
